Reference: patent publication US20100099561A1, “HETEROBICYCLIC ALKYLTHIO-BRIDGED ISOXAZOLINES” (E.I. DU PONT DE NEMOURS AND COMPANY, priority 2008, published 2010)

Tests used:
Assay type in all cases: in vivo
[1] = test system: barnyardgrass (Echinochloa crus-galli); assay: Test A preemergence, barnyardgrass; conditions: 0 to 100 scale (0 no effect, 100 complete control)
How it was run: (§1)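 In a greenhouse, loam–sand potted species were treated with surfactant-formulated compound, preemergence via directed soil spray and postemergence at 2–10 cm height, one- to two-leaf stage. Response assessed visually at about ten days; 100 means complete control.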

[2] = test system: large crabgrass (Digitaria sanguinalis); assay: Test A preemergence, large crabgrass; conditions: 0 to 100 scale (0 no effect, 100 complete control)
How it was run: as §1

[3] = test system: giant foxtail (Setaria faberi); assay: Test A preemergence, giant foxtail; conditions: 0 to 100 scale (0 no effect, 100 complete control)
How it was run: as §1

[4] = test system: morningglory (Ipomoea spp.); assay: Test A preemergence, morningglory; conditions: 0 to 100 scale (0 no effect, 100 complete control)
How it was run: as §1

[5] = test system: pigweed (Amaranthus retroflexus); assay: Test A preemergence, pigweed; conditions: 0 to 100 scale (0 no effect, 100 complete control)
How it was run: as §1

[6] = test system: velvetleaf (Abutilon theophrasti); assay: Test A preemergence, velvetleaf; conditions: 0 to 100 scale (0 no effect, 100 complete control)
How it was run: as §1

[7] = test system: wheat (Triticum aestivum); assay: Test A preemergence, wheat; conditions: 0 to 100 scale (0 no effect, 100 complete control)
How it was run: as §1

corn (Zea mays) [8] = assay: Test A preemergence, corn; conditions: 0 to 100 scale (0 no effect, 100 complete control)
How it was run: as §1

[9] = test system: barnyardgrass (Echinochloa crus-galli); assay: Test A postemergence, barnyardgrass; conditions: 0 to 100 scale (0 no effect, 100 complete control)
How it was run: as §1

[10] = test system: large crabgrass (Digitaria sanguinalis); assay: Test A postemergence, large crabgrass; conditions: 0 to 100 scale (0 no effect, 100 complete control)
How it was run: as §1

[11] = test system: giant foxtail (Setaria faberi); assay: Test A postemergence, giant foxtail; conditions: 0 to 100 scale (0 no effect, 100 complete control)
How it was run: as §1

[12] = test system: morningglory (Ipomoea spp.); assay: Test A postemergence, morningglory; conditions: 0 to 100 scale (0 no effect, 100 complete control)
How it was run: as §1

[13] = test system: pigweed (Amaranthus retroflexus); assay: Test A postemergence, pigweed; conditions: 0 to 100 scale (0 no effect, 100 complete control)
How it was run: as §1

[14] = test system: velvetleaf (Abutilon theophrasti); assay: Test A postemergence, velvetleaf; conditions: 0 to 100 scale (0 no effect, 100 complete control)
How it was run: as §1

[15] = test system: wheat (Triticum aestivum); assay: Test A postemergence, wheat; conditions: 0 to 100 scale (0 no effect, 100 complete control)
How it was run: as §1

corn (Zea mays) [16] = assay: Test A postemergence, corn; conditions: 0 to 100 scale (0 no effect, 100 complete control)
How it was run: as §1

rice (Oryza sativa) = assay: Test B flooded paddy test, rice; conditions: Flood, scale 0 to 100
How it was run: (§2)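 2-leaf plants; pots flooded 3 cm above soil; compound added to paddy water; depth maintained. Greenhouse 13–15 d. Visual rating vs controls, 0 (no effect) to 100 (complete control); dash = no result.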

[17] = test system: umbrella sedge (Cyperus difformis); assay: Test B flooded paddy test, umbrella sedge; conditions: Flood, scale 0 to 100
How it was run: as §2

[18] = test system: ducksalad (Heteranthera limosa); assay: Test B flooded paddy test, ducksalad; conditions: Flood, scale 0 to 100
How it was run: as §2

[19] = test system: barnyardgrass (Echinochloa crus-galli); assay: Test B flooded paddy test, barnyardgrass; conditions: Flood
How it was run: as §2

[20] = 250 g ai/ha, scale 0 to 100 (0 no effect, 100 complete control)

Row | Compound | Plant response rating, Barnyardgrass ([1]; 125 g ai/ha) | Plant response rating, Barnyardgrass ([1]; 500 g ai/ha) | Plant response rating, Crabgrass, Large ([2]; 125 g ai/ha) | Plant response rating, Crabgrass, Large ([2]; 500 g ai/ha) | Plant response rating, Foxtail, Giant ([3]; 125 g ai/ha) | Plant response rating, Foxtail, Giant ([3]; 500 g ai/ha) | Plant response rating, Morningglory ([4]; 125 g ai/ha) | Plant response rating, Morningglory ([4]; 500 g ai/ha) | Plant response rating, Pigweed ([5]; 125 g ai/ha) | Plant response rating, Pigweed ([5]; 500 g ai/ha) | Plant response rating, Velvetleaf ([6]; 125 g ai/ha) | Plant response rating, Velvetleaf ([6]; 500 g ai/ha) | Plant response rating, Wheat ([7]; 125 g ai/ha) | Plant response rating, Wheat ([7]; 500 g ai/ha) | Plant response rating, Corn (corn (Zea mays) [8]; 125 g ai/ha) | Plant response rating, Corn (corn (Zea mays) [8]; 500 g ai/ha) | Plant response rating, Barnyardgrass ([9]; 125 g ai/ha) | Plant response rating, Barnyardgrass ([9]; 500 g ai/ha) | Plant response rating, Crabgrass, Large ([10]; 125 g ai/ha) | Plant response rating, Crabgrass, Large ([10]; 500 g ai/ha) | further results
1 | Cc1con2c(=O)c(C[S+]([O-])C3=NOC(C)(C)C3)c(C(F)(F)F)nc12 (centres unmarked) [Compound 47] | 0 | 70 | 0 | 20 | 0 | 30 | 0 | 0 | 0 | 0 | 0 | 0 | 0 | 0 | 0 | 0 | 0 | 50 | 0 | 60 | Plant response rating, Foxtail, Giant ([11]; 125 g ai/ha): 0; Plant response rating, Foxtail, Giant ([11]; 500 g ai/ha): 60; Plant response rating, Morningglory ([12]; 125 g ai/ha): 0; Plant response rating, Morningglory ([12]; 500 g ai/ha): 20; Plant response rating, Pigweed ([13]; 125 g ai/ha): 0; Plant response rating, Pigweed ([13]; 500 g ai/ha): 0; Plant response rating, Velvetleaf ([14]; 125 g ai/ha): 0; Plant response rating, Velvetleaf ([14]; 500 g ai/ha): 0; Plant response rating, Wheat ([15]; 125 g ai/ha): 0; Plant response rating, Wheat ([15]; 500 g ai/ha): 0; Plant response rating, Corn (corn (Zea mays) [16]; 125 g ai/ha): 0; Plant response rating, Corn (corn (Zea mays) [16]; 500 g ai/ha): 20; Plant response rating, Rice (rice (Oryza sativa); 62 g ai/ha): 0; Plant response rating, Rice (rice (Oryza sativa); 250 g ai/ha): 0; Plant response rating, Sedge, Umbrella ([17]; 62 g ai/ha): 0; Plant response rating, Sedge, Umbrella ([17]; 250 g ai/ha): 0; Plant response rating, Ducksalad ([18]; 62 g ai/ha): 0; Plant response rating, Ducksalad ([18]; 250 g ai/ha): 0; Plant response rating, Barnyardgrass ([19]; 62 g ai/ha, scale 0 to 100): 0; Plant response rating, Barnyardgrass [19, 20]: 0
2 | Cc1cc2nc(C(F)(F)F)c(C[S+]([O-])C3=NOC(C)(C)C3)c(=O)n2o1 (centres unmarked) [Compound 50] | 0 | 70 | 0 | 70 | 0 | 70 | 0 | 0 | 0 | 0 | 0 | 0 | 0 | 0 | 0 | 0 | 0 | 60 | 0 | 50 | Plant response rating, Foxtail, Giant ([11]; 125 g ai/ha): 0; Plant response rating, Foxtail, Giant ([11]; 500 g ai/ha): 60; Plant response rating, Morningglory ([12]; 125 g ai/ha): 0; Plant response rating, Morningglory ([12]; 500 g ai/ha): 10; Plant response rating, Pigweed ([13]; 125 g ai/ha): 0; Plant response rating, Pigweed ([13]; 500 g ai/ha): 0; Plant response rating, Velvetleaf ([14]; 125 g ai/ha): 0; Plant response rating, Velvetleaf ([14]; 500 g ai/ha): 0; Plant response rating, Wheat ([15]; 125 g ai/ha): 0; Plant response rating, Wheat ([15]; 500 g ai/ha): 0; Plant response rating, Corn (corn (Zea mays) [16]; 125 g ai/ha): 0; Plant response rating, Corn (corn (Zea mays) [16]; 500 g ai/ha): 30; Plant response rating, Rice (rice (Oryza sativa); 62 g ai/ha): 0; Plant response rating, Rice (rice (Oryza sativa); 250 g ai/ha): 0; Plant response rating, Sedge, Umbrella ([17]; 62 g ai/ha): 0; Plant response rating, Sedge, Umbrella ([17]; 250 g ai/ha): 0; Plant response rating, Ducksalad ([18]; 62 g ai/ha): 0; Plant response rating, Ducksalad ([18]; 250 g ai/ha): 0; Plant response rating, Barnyardgrass ([19]; 62 g ai/ha, scale 0 to 100): 0; Plant response rating, Barnyardgrass [19, 20]: 0
